Values after ≈ are worked out from the molar mass of the structure shown. Values joined by “and” are separate entries in the source; they are usually repeats but may differ in a detail not shown here. Identical values can stand only once. Like-named read-outs stand apart in the source and are kept apart here.
How the values were obtained:
[1] = test system: Cal-27 cells; assay: MTT antiproliferative assay, oral Cal-27 cells; settings: Homo sapiens, CAL-27, 72 h, read-out: IC50, cytotoxicity, Oral Cal-27
Description: (§3) Several cancer cell lines including leukemia K562, Molt 4, and HL 60 cells, prostate cancer LNCaP cells, colon cancer DLD-1 cells and breast cancer T-47D cells were used to evaluate the antiproliferative activity.
(§4) The cell lines were obtained from the American Type Culture Collection (ATCC, Manassas, VA, USA). […] Dimethyl sulfoxide (DMSO), 3-(4,5-dimethylthiazol-2-yl)-2,5-diphenyl-tetrazolium bromide (MTT) and all other chemicals were purchased from Sigma-Aldrich (St. Louis, MO, USA).

[2] = test system: γH2AX in Molt 4 cells; assay: Western blot of γH2AX (DNA damage biomarker); type: cell-based, human; settings: 0, 0.0625, 0.125 and 0.25 μg/mL, 24 h
Description: The ability of Topo II to generate DNA damage in the presence of Topo II-targeting agents led to the hypothesis that an important determinant of drug sensitivity was related to the overall level of Topo II[17]. […] Such findings encouraged us to evaluate the effect of the isolates on Topo II activity. In order to confirm whether the DNA damage-induced by the isolated sesterterpenoids involved the inhibition of Topo II activity, a cell-free DNA cleavage assay using an enzyme-mediated negatively supercoiled pHOT1 plasmid DNA was applied. […] These marine terpenoids suppressed Topo II activity, resulting in the inhibition of supercoiled DNA relaxation in a dose-dependent manner (Fig. 5A). […] To determine whether the apoptotic mechanism of these compounds affects γH2AX (as a biomarker of DNA damage) induction, Western blot analysis was employed to examine the activation of γH2AX.
Cell lysates were prepared by treating the cells for 30 min in RIPA lysis buffer, 1% Nonidet P-40, 0.5% sodium deoxycholate, 0.1% sodium dodecyl sulphate (SDS), 1 mM sodium orthovanadate, 100 μg/mL phenylmethylsulfonyl fluoride and 30 μg/mL aprotinin) (all chemicals were from Sigma)[38]. The lysates were centrifuged at 20,000 × g for 30 min, and the protein concentration in the supernatant was determined using a BCA protein assay kit (Pierce). Equal amounts of proteins were respectively separated by 7.5%, 10% or 12% of SDS-polyacrylamide gel electrophoresis and then were electrotransferred to a PVDF membrane. The membrane was blocked with a solution containing 5% non-fat dry milk TBST buffer (20 mM Tris-HCl, pH 7.4, 150 mM NaCl and 0.1% Tween 20) for 1 h and washed with TBST buffer. The protein expressions were monitored by immunoblotting using specific antibodies. These proteins were detected by an enhanced chemiluminescence kit (Pierce).

[3] = test system: all leukemia and one lymphoma cell lines; assay: MTT assay, summary statement for leukemia and lymphoma lines; settings: read-out: IC50 against all leukemia and one lymphoma cell lines
Description: as §3, §4

[4] = test system: Molt 4 cells; assay: Intracellular Ca2+ accumulation, Fluo 3 flow cytometry; type: cell-based, human; settings: 0.0625 μg/mL
Protocol: Oxidative stress is manifested by ROS overexpression and cannot be balanced by the available antioxidant machinery. Compound 1 can damage the integrity of mitochondria, which are the major production sites of the superoxide anion, […]. The induction of the intracellular formation of ROS by 1 was determined with a carboxyl derivative of fluorescein, carboxy-H2DCFDA dye using flow cytometric analysis. […] In addition, ROS generation could induce ER stress leading to mitochondria-related apoptosis. To further investigate if ER stress is involved in the apoptotic effect induced by 1, Western blot analysis was used to determine the expression of ER stress-related proteins. […] Furthermore, the effect of 1 on the release of intracellular Ca^2+, was evaluated using fluorescent calcium indicator, Fluo 3. […] The induction of the typical executor caspases-3 and −7, as well as γH2AX, was also observed using Western blot analysis (Fig. 7D). To confirm the induction of DNA damage by 1 in Molt 4 cells, a comet assay under neutral electrophoresis condition was utilized. The effect of 1 (0.0625 μg/mL) at different time intervals (0, 3, 6 and 9 h) on the level of nuclear DNA integrity was determined. […] The DNA migration was represented by the induction of DSBs in a time-dependent increase, as indicated by the abnormal tails’ sizes in the comet assay.
(§1) These assays were performed as described previously. […] In brief, the treated cells were labeled with a specific fluorescent dye for 30 min. After labeling, cells were washed with PBS and resuspended in PBS at a concentration of 1 × 10^6 cells/mL before analysis via flow cytometry.

[5] = test system: Molt 4 cells; assay: MMP disruption, JC-1 staining flow cytometry; type: cell-based, human; settings: 0, 0.0625, 0.125 and 0.25 μg/mL, 24 h
Protocol: as §1

[6] = test system: Molt 4 cells; assay: Neutral comet assay for DNA double-strand breaks; type: cell-based, human; settings: 0.0625 μg/mL; 0, 3, 6 and 9 h; neutral electrophoresis
Protocol: (§2) Oxidative stress is manifested by ROS overexpression and cannot be balanced by the available antioxidant machinery. Compound 1 can damage the integrity of mitochondria, which are the major production sites of the superoxide anion, […]. The induction of the intracellular formation of ROS by 1 was determined with a carboxyl derivative of fluorescein, carboxy-H2DCFDA dye using flow cytometric analysis. […] In addition, ROS generation could induce ER stress leading to mitochondria-related apoptosis. To further investigate if ER stress is involved in the apoptotic effect induced by 1, Western blot analysis was used to determine the expression of ER stress-related proteins. […] Furthermore, the effect of 1 on the release of intracellular Ca^2+, was evaluated using fluorescent calcium indicator, Fluo 3. […] The effect of 1 (0.0625 μg/mL) at different time intervals (0, 3, 6 and 9 h) on the level of nuclear DNA integrity was determined. […]
The assay was carried out using a CometAssayTM Kit (Trevigen, Gaithersburg, MD, USA) following the manufacturer’s protocol for the neutral Comet assay. […] The fluorescence images were analyzed using the TriTek Comet Image program to circumscribe the “head” and the “tail” regions of each comet and the integrated fluorescence values of each defined area were recorded. The comet length was measured from the trailing edge of the nucleus to the leading edge of the tail. […]

[7] = test system: PARP and caspases in Molt 4 cells; assay: Western blot of apoptosis-related proteins; type: cell-based, human; settings: 0.0625 μg/mL, time-dependent
Protocol: as §2
Cell lysates were prepared by treating the cells for 30 min in RIPA lysis buffer, 1% Nonidet P-40, 0.5% sodium deoxycholate, 0.1% sodium dodecyl sulphate (SDS), 1 mM sodium orthovanadate, 100 μg/mL phenylmethylsulfonyl fluoride and 30 μg/mL aprotinin) (all chemicals were from Sigma)[38]. The lysates were centrifuged at 20,000 × g for 30 min, and the protein concentration in the supernatant was determined using a BCA protein assay kit (Pierce). […]

[8] = test system: Molt 4 cells; assay: MTT antiproliferative assay, leukemia Molt 4 cells; type: cell-based; settings: Homo sapiens

SMILES: CC[C@@]1(C)CCC[C@]2(C)[C@H]3C[C@@H](OC(=O)C[C@@H](C)O)[C@]4(C)[C@@H](C=O)C(C(C)=O)=CC[C@H]4[C@]3(C)CC[C@@H]12 (relative stereo) [Compound 1, 12β-(3′β-hydroxybutanoyloxy)-20,24-dimethyl-24-oxo-scalara-16-en-25-al]
- IC50 [1]: 0.56 µg/mL (≈ 1.12 µM)
- expression of γH2AX [2]: significantly enhanced the expression of γH2AX in a dose-dependent manner
- IC50 [3]: 0.01 µg/mL and 2.08 nM
- increase in intracellular Ca2+ accumulation compared to MFI of control ([4]; 0.5 h): 1.03 folds
- increase in intracellular Ca2+ accumulation compared to MFI of control ([4]; 1 h): 1.05 folds
- increase in intracellular Ca2+ accumulation compared to MFI of control ([4]; 2 h): 1.06 folds
- increase in intracellular Ca2+ accumulation compared to MFI of control ([4]; 3 h): 1.37 folds
- increase in intracellular Ca2+ accumulation compared to MFI of control ([4]; 6 h): 2.41 folds
- increase in intracellular Ca2+ accumulation compared to MFI of control ([4]; 18 h): 1.06 folds
- mitochondrial membrane potential [5]: disruption in mitochondrial membrane potential
- DNA migration (DSBs), comet assay [6]: increased the degree of DNA migration
- PARP and caspase cleavages [7]: significant increase of PARP, caspases-8 and −9 cleavages
- IC50 ([8]; 72 h, read-out: IC50, cytotoxicity, Leukemia Molt 4): 0.01 µg/mL
- IC50 ([8]; molar value in brackets, read-out: antiproliferative activity (IC50), Molt 4): 19.1 nM

— paper PMC5086919, “Antileukemic Scalarane Sesterterpenoids and Meroditerpenoid from Carteriospongia (Phyllospongia) sp., Induce Apoptosis via Dual Inhibitory Effects on Topoisomerase II and Hsp90” (Scientific Reports, 2016)
